Reference: patent US6689762B1, “Composition and methods for treatment of HIV infection” (Enzon Pharmaceuticals, Inc., priority 1998, dated 2004)
Where “and” joins values, the source holds several entries; their conditions need not be identical. Equal entries are not always repeated.

Assays:
[1] = tested on: HIV-RT levels of HIV-1 infected CEM/0 cell pellets; assay: HIV-RT ELISA (Reverse Transcriptase Assay, non-radioactive) in cell pellets of HIV-1 infected CEM/0 T-cells; type: cell-based; conditions: Table 9
Source text: The following is a general procedure for the HIV-reverse transcriptase assay:
The cell line used for these studies is CCRF/CEM/O, a human T-leukemic cell line. PEG-ASNase (ONCASPAR) is provided by Rhone-Poulenc Rorer. Saquinavir is commercially available. RPMI-1640 media (Irvine Scientific, Irvine, Calif.) is enriched with 10% Fetal Calf Serum (Gemini Biosource, Calabasas, Calif.), 5% 1M Hepes Buffer solution and 5% Non-essential amino acids (Irvine Scientific, Irvine, Calif.). The drug concentrations used are as follows:
Briefly, 2×10^6 cells/ml are stimulated with PHA+ media for 48 hours at 37° C. with 5% CO2. Also, the same number of cells are incubated in PHA(phytohemagglutinin) free media for 48 hours to serve as the negative control. At this point the cells are inoculated with the HIV-1 virus as per standard protocol. PEG-ASNase and/or Saquinavir are added to the cells in the appropriate concentrations (see above). The control cells are resuspended in drug-free media for the duration of the exposure which lasted seven days. At day five, two 1 ml aliquots of media are removed from the flasks and stored under liquid nitrogen. At day seven, two more 1 ml aliquots of media are removed from the flasks and stored under liquid nitrogen. In addition, the remaining cells are pelleted and stored at −80° C.
The samples produced from this experiment are itemized and then assayed for HIV-RT using the Reverse Transcriptase Assay, non-radioactive (Boehringer Mannheim). The standard curve is determined and the HIV-RT levels for the experimental samples are calculated.
This experiment is carried out using a similar procedure, and the same concentrations of materials as in Experiment 7, however the exposure of the HIV virus in T-cell pellets to PEG-ASNase and Saquinavir alone, and in combination is measured. It should be noted that “PEG” in Table 2a represents PEG-ASNase. […]

[2] = tested on: HIV-RNA in supernatant of HIV-1 infected CEM/0 T-cells; assay: HIV-1 quantitative RNA assay (HIV-1 Monitor) in supernatants of CEM/0 T-cells; type: cell-based; design: inhibition of HIV-RNA in the supernatants in comparison to untreated control / % OF CONTROL / % control: concentration or dose not given beside the values
Source text: It should be noted that “PEG” in Table 3 represents PEG-ASNase.
Materials and Methods: The cell line used for these studies is CEM/0, a human T-cell leukemic cell line. PEG-ASNase (ONCASPAR) is provided by Rhone-Poulenc Rorer. Saquinavin is commercially available. AZT is purchased from Sigma. MISID, a ribonucleotide reductase inhibitor, is as described in Nandy P, Lien E J, Avramis V I, Med. Chem. Res. 1995, 5:664-679. RPMI-1640 media (Irvine Scientific, Irvine, Calif.), is enriched with 10% Fetal Calf Serum (Gemini Biosource, Calabasas, Calif.), 5% 1M Hepes Buffer solution and 5% Non-essential amino acids (Irvine Scientific, Irvine, Calif.). The drug concentrations used are as follows:
Briefly, 3×10^6 cells/ml are stimulated with PHA+ media for 48 hours at 37° C. with 5% CO2. Also, the same number of cells are incubated in PHA free media for 48 hours to serve as the negative control. At this point the cells are inoculated with the HIV-1 virus as per standard protocol. Note that in this experiment, the HIV containing supernatant from the PHA-stimulated healthy human peripheral mononuclear cells (PBMC) is not removed from the PHA-stimulated CEM/0 cell culture. […] These virus particles are continuously released by already infected T-cells and/or lymph nodes of patients.
The experimental drugs are added to the cells in the appropriate concentrations at the same time as viral inoculation or 90 minutes after the viral incubation, a time sufficient for the T-cells to be infected and start producing new HIV-1 virus particles. The control cells are resuspended in drug-free media for the duration of the exposure which lasted seven days. Aliquots of media from the control flasks only are obtained on day 5 post Rx. At day seven, three 1 ml each, aliquots of media are removed from the flasks and stored under liquid nitrogen. In addition, the remaining cells are split into three and then pelleted and stored at −80° C. Supernatant specimens are obtained form these T-cell cultures and are frozen at −80° C. The samples produced from this experiment are itemized. The cell pellets of the cellular cultures (see Experiment 9) from the 90 minute viral incubation flasks are assayed for HIV-RNA quantitative assay using a kit for the assay, non-radioactive. […] The standard curve is determined and the HIV-RNA levels for the experimental samples are calculated and reported previously.
This experiment is carried out using a similar procedure, and the same concentrations of materials as in Experiment 10, however the exposure of HIV-RNA in T-cell supernatants to a combination of PEG-ASNase, Saquinavir, AZT and 3TC is measured. It should be noted that “PEG” in Table 10 represents PEG-ASNase.

Which results are given for Nc1ccn([C@@H]2CS[C@H](CO)O2)c(=O)n1 [3TC, lamivudine]?
MEAN X3 (HIV-RT) [1]: 0.004 ng/well; MEAN ([2]; Table 10): 1752 copies/mL; N* ([2]; Table 10, per specimen, day 7 post Rx, PEG 0.400 IU/ml, SAQ 25 uM, AZT 1 uM, 3TC 1 uM, combinations PEG 0.233 IU/ml + SAQ 14.52 uM): 1700 copies/mL and 1836 copies/mL and 1719 copies/mL; % OF CONTROL ([2]; Table 10 and Experiment 11): 39.58%
